B1: Mycobacterium tuberculosis transcription termination factor Rho (enzyme)
chain: TDTDLITAGESTDGKPSDAAATDPPDLNADEPAGSLATMVLPELRALANRAGVKGTSGMRKNELIAAIEEIRRQANGAPAVDRSAQEHDKGDRPPSSEAPATQGEQTPTEQIDSQSQQVRPERRSATREAGPSGSGERAGTAADDTDNRQGGQQDAKTEERGTDAGGDQGGDQQASGGQQARGDEDGEARQGRRGRRFRDRRRRGERSGDGAEAELREDDVVQPVAGILDVLDNYAFVRTSGYLPGPHDVYVSMNMVRKNGMRRGDAVTGAVRVPKEGEQPNQRQKFNPLVRLDSINGGSVEDAKKRPEFGKLTPLYPNQRLRLETSTERLTTRVIDLIMPIGKGQRALIVSPPKAGKTTILQDIANAITRNNPECHLMVVLVDERPEEVTDMQRSVKGEVIASTFDRPPSDHTSVAELAIERAKRLVEQGKDVVVLLDSITRLGRAYNNASPASGRILSGGVDSTALYPPKRFLGAARNIEEGGSLTIIATAMVETGSTGDTVIFEEFKGTGNAELKLDRKIAERRVFPAVDVNPSGTRKDELLLSPDEFAIVHKLRRVLSGLDSHQAIDLLMSQLRKTKNNYEFLVQVSKTTPGSMDSD
notes: also called MtbRho; WT MtbRho

Assays:
[1] = molecular target: M. tuberculosis Rho (MtbRho) (Mycobacterium tuberculosis, UniProt P9WHF3); format: binding
SEC-MALS = molecular target: the molecule itself; assay: SEC-MALS

Sequence of M. tuberculosis Rho (MtbRho) (P9WHF3 whole entry): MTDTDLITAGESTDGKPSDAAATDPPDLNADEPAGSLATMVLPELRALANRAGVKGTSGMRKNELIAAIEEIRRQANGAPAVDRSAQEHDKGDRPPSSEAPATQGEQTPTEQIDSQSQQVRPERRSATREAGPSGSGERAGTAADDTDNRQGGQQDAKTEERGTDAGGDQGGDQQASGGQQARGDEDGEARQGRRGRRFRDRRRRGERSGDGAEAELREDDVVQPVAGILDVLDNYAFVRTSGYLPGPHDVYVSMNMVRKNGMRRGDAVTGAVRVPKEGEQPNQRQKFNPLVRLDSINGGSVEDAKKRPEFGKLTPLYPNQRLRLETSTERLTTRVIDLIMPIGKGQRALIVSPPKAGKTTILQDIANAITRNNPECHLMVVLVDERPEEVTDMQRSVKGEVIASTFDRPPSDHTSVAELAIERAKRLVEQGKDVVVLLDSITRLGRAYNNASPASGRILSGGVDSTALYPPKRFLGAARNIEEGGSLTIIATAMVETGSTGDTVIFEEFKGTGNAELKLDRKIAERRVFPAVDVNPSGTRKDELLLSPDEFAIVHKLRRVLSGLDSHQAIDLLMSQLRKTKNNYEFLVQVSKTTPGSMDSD

Row | Molecule | cryo-EM structure, 3.3 Å, 6 ATP per hexamer [1] | stoichiometry N (SEC-MALS)
1 | Nc1ncnc2c1ncn2[C@@H]1O[C@H](COP(=O)(O)OP(=O)(O)OP(=O)(O)O)[C@@H](O)[C@H]1O [ATP] | clear electron density in all the ATPase pockets of MtbRho reveals that ATP ligands are held by a network | 
2 | B1 |  | 6
